# Measurements: patent US20240391958A1, “KEANUMYCINS AND USES THEREOF IN MEDICINE AND PLANT PROTECTION” (Leibniz-Institut für Naturstoff-Forschung und …, priority 2023, published 2024)
# Where “and” joins values, the source holds several entries; their conditions need not be identical. Identical values can stand only once. Like-named read-outs stand apart in the source and are kept apart here. Where a SMILES comes first, the peptide text is derived from it. Bridges are numbered along the chain shown (N, C = ends). [ ]: non-standard residue; d: D form. The star is where a group is joined. X1 = CCCCCCCCCCCC[C@@H](O)[C@@H](O)CC(=O)*; Asp(3S-OH) = N[C@H](C(=O)O)[C@H](O)C(=O)O; Thr(4-Cl) = N[C@H](C(=O)O)[C@H](O)CCl; aThr = C[C@H](O)[C@H](N)C(=O)O; d(hSer) = N[C@H](CCO)C(=O)O; dDab = NCC[C@@H](N)C(=O)O; Dab = NCC[C@H](N)C(=O)O; Dhb = C/C=C(\N)C(=O)O
# Columns and labels:
# A. comandoni = assay: Amoebicidal activity against Acanthamoeba (resazurin assay); type: cell-based; details: 96 h, 28 °C, average of two experiments
# Procedure: Amoebicidal activity of keanumycin A against Acanthamoeba was determined by culturing A. castellanii or A. comandoni in 96-well plates (Sarstedt) in 100 μL PYG medium (ATCC Medium 712; https://www.atcc.org) containing 1% DMSO (Carl Roth) and a specified amount of compound (starting from 50 μM; 2-fold serial dilution) in triplicates at 28° C. After 96 h the cell viability was determined using a resazurin assay. Therefore, 20 μL of a 1 mM resazurin sodium (Sigma) solution in water was added per single well before it was allowed to incubate for another 3 h at 28° C. Using a plate reader (Tecan Life Sciences, excitation 560 nm and emission 590 nm) the fluorescence emission was determined. The fluorescence (including standard deviation) was plotted against the logarithmic concentration of the compound and the IC50 value was determined using PRISM (GraphPad, Version 5.03).
# [1] = test system: human chronic myeloid leukemia cells K-562 (DSM ACC 10); assay: Antiproliferative effect; type: cell-based
# Procedure: (§1) Keanumycin A was assayed for antiproliferative effects (GI50) using human umbilical vein endothelial cells HUVEC (ATCC CRL-1730) and human chronic myeloid leukemia cells K-562 (DSM ACC 10) and for their cytotoxic effects (CC50) using human cervix carcinoma cells HeLa (DSM ACC 57) as previously described). The test compounds were dissolved in DMSO (10 mg mL-1).
# [2] = test system: human umbilical vein endothelial cells HUVEC (ATCC CRL-1730); assay: Antiproliferative effect; type: cell-based
# Procedure: as §1
# Cytotoxicity = type: cell-based; details: human, HeLa cervix carcinoma cells (DSM ACC 57)
# Procedure: as §1
# [3] = test system: Aspergillus fumigatus ATCC 204305; assay: Broth dilution method (EUCAST); type: cell-based; details: Aspergillus fumigatus
# Procedure: (§2) The activity assay was performed using the broth dilution method according to the EUCAST DEFINITIVE DOCUMENT E.DEF 9.3.2. B. cinerea and A. solani were incubated according to the Methods for dilution antimicrobial susceptibility tests for bacteria that grow aerobically by the NCCLS. Keanumycin A was dissolved in DMSO.
# Candida auris 2021-353 = assay: Broth dilution method (EUCAST); type: cell-based
# Procedure: as §2
# [4] = test system: Candida glabrata 2021-359; assay: Broth dilution method (EUCAST); type: cell-based
# Procedure: as §2
# [5] = test system: Candida parapsilosis ATCC 22019; assay: Broth dilution method (EUCAST); type: cell-based; details: Lodderomyces parapsilosis
# Procedure: as §2
# [6] = test system: Candida tropicalis 2021-360; assay: Broth dilution method (EUCAST); type: cell-based
# Procedure: as §2
# [7] = test system: Fusarium proliferatum 2021-361; assay: Broth dilution method (EUCAST); type: cell-based
# Procedure: as §2
# [8] = test system: Rhizopus arrhizus 2021-366; assay: Broth dilution method (EUCAST); type: cell-based
# Procedure: as §2
# [9] = test system: Scedosporium apiospermum 2016-079; assay: Broth dilution method (EUCAST); type: cell-based
# Procedure: as §2
# [10] = test system: human vaginal epithelial cells A431 infected with C. albicans; assay: C. albicans vaginal epithelial infection model, epithelial damage (LDH); type: cell-based; details: 24 hours of infection, tested 1-16 μg/ml
# Procedure: (§3) FIGS. 7A-7B show in 7A) Keanumycin A protected human vaginal epithelial cells in C. albicans infection model. Micrograph depicts % damage to human vaginal epithelial cells A431 (y-axis) in the presence of keanumycin A at varied concentrations (x-axis) as estimated by LDH cytotoxicity assay after 24 hours of infection or treatment. LDH absorbance was normalized to C. albicans infected and uninfected controls. Keanumycin A protected vaginal cells from damage by C. albicans at a narrow concentration range from 4-8 μg/ml (black line). Keanumycin A was toxic to vaginal cells at concentrations above 8 μg/ml (grey line) (N=3). […] Vaginal epithelial cells were lysed after 24-hour infection, and fungal viability was measured by XTT absorbance, normalized to C. albicans infected and uninfected controls (N=2) […]
# (§4) Overnight culture of C. albicans strain SC5314 grown in YPD at 30° C., shaking at 180 RPM was harvested, washed twice with PBS. […] Epithelial damage was measured 24 hours after infection by collecting and diluting the supernatant 1:10 in PBS and measuring the lactate dehydrogenase (LDH) activity with the Roche Cytotoxicity Detection Kit (LDH) as per manufacturer's instructions. The absorbance (490 nm) values are represented as percentage damage, which is normalized to the low control, where medium only is 0% damage, and high control, where C. albicans infection is 100% damage. […]
# [11] = test system: human vaginal epithelial cells A431; assay: Toxicity to uninfected vaginal epithelial cells (LDH); type: cell-based; details: A431 cells without infection, 24 hours
# Procedure: as §3, §4
# C. albicans = assay: Fungal viability in vaginal epithelial infection model (XTT); type: cell-based, Candida albicans; details: XTT absorbance after 24-hour infection, N=2
# Procedure: as §3, §4
# HAC1 mRNA = assay: Splicing of HAC1 mRNA (Ire1-Hac1 UPR pathway); type: cell-based, Candida albicans; details: compared to positive tunicamycin control
# Excerpt: To see if keanumycin A triggers the same canonical Ire1-Hac1 UPR pathway, the inventors looked at the splicing of HAC1 mRNA, which is regulated by Ire1. […] Since no other specific signaling pathway stood out, the inventors screened homozygous knockout mutants for significant growth differences in the absence and presence of a sublethal concentration of the NRLP. […] PLB5 is an important gene for phospholipid homeostasis and PMT6 codes for a transmembrane protein mannosyltransferase, which is involved in the construction of the outmost mannan cell wall layer in C. albicans.
structure (smiles),measurement,setting,value
"C/C=C1\NC(=O)[C@H]([C@H](C)O)NC(=O)[C@H](CCN)NC(=O)[C@@H](CCO)NC(=O)CNC(=O)[C@@H](CCN)NC(=O)[C@@H](NC(=O)C[C@H](O)[C@H](O)CCCCCCCCCCCC)COC(=O)[C@H]([C@H](O)CCl)NC(=O)[C@H]([C@H](O)C(=O)O)NC1=O [Keanumycin A, keanumycin A] (X1-S[dDab]G[d(hSer)][Dab][aThr][Dhb][Asp(3S-OH)][Thr(4-Cl)]; ester 1-C)",IC50,A. comandoni,3.1 µM
same,GI50,[1]; K562,26.8 µg/mL
same,GI50,"[1]; K562, K-562, converted value, read-out: GI50",23 µM
same,GI50,[2],≥ 50 µg/mL
same,GI50,"[2]; converted value, read-out: GI50",> 43 µM
same,CC50,Cytotoxicity,34.9 µg/mL
same,CC50,"Cytotoxicity; HeLa, converted value",30 µM
same,MIC,[3]; ATCC204305,3.42 µM and 4 µg/mL
same,MIC,"[3]; ATCC204305, read-out: Result of the broth dilution method assay (MIC)",4 µg/mL
same,MIC,"Candida auris 2021-353; Candidozyma auris, 2021353",0.86 µM and 1 µg/mL
same,MIC,"Candida auris 2021-353; Candidozyma auris, 2021353, read-out: Result of the broth dilution method assay (MIC)",0.5 to 1 µg/mL
same,MIC,"[4]; Nakaseomyces glabratus, 2021359",0.86 µM and 1 µg/mL
same,MIC,"[4]; Nakaseomyces glabratus, 2021359, read-out: Result of the broth dilution method assay (MIC)",1 µg/mL
same,MIC,[5]; ATCC22019,0.86 µM and 1 µg/mL
same,MIC,"[5]; ATCC22019, read-out: Result of the broth dilution method assay (MIC)",1 µg/mL
same,MIC,"[6]; Candida tropicalis, 2021360",0.86 µM and 1 µg/mL
same,MIC,"[6]; Candida tropicalis, 2021360, read-out: Result of the broth dilution method assay (MIC)",1 µg/mL
same,MIC,[7],> 6.85 µM and > 8 µg/mL
same,MIC,"[7]; Fusarium proliferatum, 2021361, read-out: Result of the broth dilution method assay (MIC)",> 8 µg/mL
same,MIC,"[8]; Rhizopus arrhizus, 2021366",> 6.85 µM and > 8 µg/mL
same,MIC,"[8]; Rhizopus arrhizus, 2021366, read-out: Result of the broth dilution method assay (MIC)",> 8 µg/mL
same,MIC,"[9]; Scedosporium apiospermum, 2016079",6.85 µM and 8 µg/mL
same,MIC,"[9]; Scedosporium apiospermum, 2016079, read-out: Result of the broth dilution method assay (MIC)",8 µg/mL
same,concentration range protecting vaginal cells from damage by C. albicans,[10],4 to 8 µg/mL
same,concentrations toxic to vaginal cells,[11],above 8 μg/ml
same,% fungal viability of C. albicans in infection model,C. albicans,reduced C. albicans viability
same,splicing of HAC1 mRNA,HAC1 mRNA,could not observe splicing in HAC1 mRNA
